According to patent US7282339B2, “Competitive immunoassay” (Invitrogen Corporation, priority 2003, dated 2007):
Where “and” joins values, the source holds several entries; their conditions need not be identical. Equal entries are not always repeated.

How the values were obtained:
p-Tyr-100 antibody = test: Screening of phosphotyrosine ligand-binding antibodies with Compound 16 (Example 20); parameters: species or system mouse; conditions: compared with p-Tyr-69, p-Tyr-20 and 4G10 antibodies; 50 nM Compound 16
Procedure: A 4 mM stock of Compound 16 was made in 16% (v/v) DMSO. Three different antibodies were diluted to 1 μM in 50 mM MOPS, pH 7.2:1) p-Tyr-100 antibody (Cell Signaling Technology, catalog # 9411); 2) p-Tyr-69 antibody (BD Transduction Labs, catalog # 610430); 3) p-Tyr-20 antibody (BD Transduction Labs, catalog # 610000). A fourth antibody, the 4G10 antibody (Upstate Biotechnology, catalog # 05-321), was diluted to 400 nM in MOPS buffer. The antibodies were serially diluted in a microplate in 25 μl 50 mM MOPS, pH 7.2, buffer. 25 μl 100 nM Compound 16 in MOPS buffer was added to all wells. The fluorescence intensity was measured on an EnVision microplate reader (Perkin Elmer), PMT 1 gain 155, PMT 2 gain 187, excitation light 53%, 100 flashes at 9 mM height.

[1] = tested on: P-Tyr-100 mouse monoclonal anti-phosphotyrosine antibody; test: Efficacy of secondary antibody labels as FRET acceptors (Example 27); type: binding
Procedure: Solutions containing (A) 100 nM phosphotyramide ligand analog, (B) 100 nM phosphotyramide ligand analog complexed with 100 nM P-Tyr-100 mouse monoclonal anti-phosphotyrosine antibody and (C) 100 nM phosphotyramide ligand analog complexed with 100 nM P-Tyr-100 anti-phosphotyrosine antibody and 600 nM Fab fragments of goat anti-mouse IgG were prepared in 50 mM Tris-HC1, pH 7.5. Corresponding sets for solutions were prepared for Fab fragments labeled with three different dyes and an unlabeled control. Fluorescence intensities at 510 nm (excitation at 450 nm) were measured on a Hitachi F-4500 spectrofluorometer and were expressed as percentages of the intensity of the free phosphotyramide ligand sample (Table 5). […] Addition of a labeled secondary antibody produced a further decrease in intensity only in the case of the Alexa Fluor 555 labeling dye, which has spectral characteristics that are consistent with efficient fluorescence resonance energy transfer from the BODIPY FL phosphotyramide ligand (Compound 16).

[2] = target: P-Tyr-100 anti-phosphotyrosine monoclonal antibody; test: Determination of dissociation constants for antibody-ligand complexes (Example 23); type: binding, mouse; conditions: 1 nM test compound, P-Tyr-100 0.02 to 40 nM; fluorescence intensity, single-site saturation fit; read-out: dissociation constant
Procedure: Solutions of Compound 15 and Compound 34 (2 nM) were prepared in 50 mM Tris-HCl pH 7.5, 10 mM MgCl2, 0.01% Brij-35, 500 μM ATP, 2 mM DTT, 1 mM EGTA, 0.5 mg/ml bovine serum albumin. 25 μl aliquots of these solutions were pipetted into the wells of a 384-well microplate. 25 μl aliquots of a serially-diluted 0.08 μM stock solution of P-Tyr-100 anti-phosphotyrosine monoclonal antibody (Cell Signaling Technology, Beverly, Mass.) were added to the wells. The resulting samples contained 1 nM test compound and antibody concentrations ranging from 0.02 to 40 nM. Fluorescence intensities of triplicate samples at each antibody concentration were measured on an EnVision microplate reader (PerkinElmer Life Sciences) using excitation/emission filter settings of 480/535 nm. The mean (n=3) fluorescence intensities were plotted against the corresponding antibody concentrations. Dissociation constants were determined from hyperbolic single-site saturation binding functions fitted to the experimental data by nonlinear regression analysis (SigmaPlot, Jandel Scientific Inc). The dissociation constants obtained were 2.0 nM for Compound 15+P-Tyr-100 and 1.7 nM for Compound 34+P-Tyr-100.

[3] = tested on: P-Tyr-100 monoclonal anti-phosphotyrosine antibody; test: Z′ factor of displacement assay with Compound 34 (Example 14); type: binding, mouse; conditions: Compound 34+P-Tyr-100 complex, phospho-pp60 c-src peptide
Procedure: A 2 mM solution of Compound 34 was prepared in water. Two working stocks were prepared in kinase buffer (50 mM Tris, pH 7.5, 10 mM MgCl2, 1 mM EGTA, 0.01% Brij 35, 2 mM DTT, 100 μM ATP): 1) 50 nM of Compound 34+100 nM P-Tyr-100 monoclonal anti-phosphotyrosine antibody (Cell Signaling Technology, catalog # 9411); 2) 100 μM phospho-pp60 c-src peptide (521-533) (TSTEPQY*QPGENL) from Bachem, catalog # H-3258. In two 384-well microplates, […] of the 50 nM Compound 34+100 nM P-Tyr-100 complex was added to 96 wells in each plate. To the same wells, 25 μl of either kinase buffer alone (48 wells each plate) or the 100 μM phospho-pp60 c-src peptide in kinase buffer (48 wells each plate) was added. The fluorescence was measured in a Victor^2 microplate reader (Wallac), 1 read/well for 0.2 sec each at 30000V gain, excitation 485+/−17.5 nm, emission 535+/−12.5 nm.
The Z′ statistic was calculated using equation 5 from Zhang, J.-H., Chung, T., D., Y., and Oldenburg, K. R. (1999) A simple statistical parameter for use in evaluation and validation of high throughput screening assays. J. Biomol. Screen. 4, 67-73. […] In other words, there is a 4-fold increase in fluorescent signal after the ligand analog is displaced by the phosphorylated peptide. See, FIG. 6.

[4] = tested on: Compound 15+P-Tyr-100 complex; test: Selectivity of displacement of Compound 15 by peptides or proteins (Example 16); type: binding, mouse; conditions: peptides or proteins serially diluted from 80 μM
Procedure: A 5 mM solution of Compound 15 was prepared in water. In kinase buffer (50 mM Tris, pH 7.5, 10 mM MgCl2, 1 mM EGTA, 0.01% Brij 35, 2 mM DTT, 100 μM ATP) 80 μM solutions of six different peptides or proteins were made: 1) phospho-pp60 c-src peptide (521-533) (TSTEPQY*QPGENL) (Bachem, catalog # H-3258); 2) non-phospho-pp60 c-src peptide (521-533) (TSTEPQYQPGENL) (Bachem, catalog # H-3256); 3) phospho-DSIP peptide (WAGGDAS*GE) (SynPep, catalog # 3920); 4) phospho-RRA(pT)VA peptide (RRAT*VA) (Sigma, catalog V248A); 5) beta-casein (Sigma, catalog # C6905); 6) bovine serum albumin (Sigma, catalog # A7284). These peptides or proteins were serially diluted 2-fold in 20 μl in a 0.025% Mowiol-blocked 384-well black Packard OptiPlate. 20 μl of a 2× mix of 50 nM of Compound 15+100 nM P-Tyr-100 (Cell Signaling Technology, catalog # 9411) complex in kinase buffer was added to the wells. The fluorescence intensity was measured on an EnVision microplate reader (Perkin Elmer), PMT 1 gain 155, PMT 2 gain 183, excitation light 60%, 100 flashes at 9 mM height.

[5] = tested on: P-Tyr-100 monoclonal anti-phosphotyrosine antibody; test: Rapid displacement of the ligand analog by the target ligand, off rate (Example 13); type: binding, mouse; conditions: 100 nM Compound 15+100 nM P-Tyr-100; 10 μM phospho-pp60 c-src peptide added
Procedure: A 5 mM solution of Compound 15 was prepared in water. In 150 μl kinase buffer (50 mM Tris, pH 7.5, 10 mM MgCl2, 1 mM EGTA, 0.01% Brij 35, 2 mM DTT, 100 μM ATP) a reaction was made containing 100 nM Compound 15+100 nM P-Tyr-100 monoclonal anti-phosphotyrosine antibody (Cell Signaling Technology, catalog # 9411). The fluorescence was measured over time using a Hitachi F-4500 fluorimeter (Ex 470, Em 510, slit width 5 nm for both wavelengths, PMT gain 700 V). After 15 seconds, 10 μM phospho-pp60 c-src peptide (521-533) (TSTEPQY*QPGENL) from Bachem, catalog # H-3258 was added.

[6] = tested on: P-Tyr-100 antiphosphotyrosine monoclonal antibody; test: Ligand analog screening: fluorescence intensity and polarization vs P-Tyr-100 antibody concentration (Examples 22, 24); type: binding, mouse; conditions: ratio of fluorescence intensity at lowest (Fmax) to highest (Fmin) antibody concentration; 50 nM ligand analog, P-Tyr-100 0.8 to 500 nM; ex/em 480/535 nm
Procedure: Solutions of test compounds (100 nM) were prepared were prepared in 50 mM Tris-HCl pH 7.5, 10 mM MgCl2, 0.01% Brij-35, 500 μM ATP, 2 mM DTT, 1 mM EGTA. 20 μl aliquots of these solutions were pipetted into the wells of a 384-well microplate. 20 μl aliquots of a serially-diluted […] stock solution of P-Tyr-100 antiphosphotyrosine monoclonal antibody (Cell Signaling Technology, Beverly, Mass.) were added to the wells. The resulting samples contained 50 nM of each ligand analog (Compounds 15, 7, 8, 9, 18 and 19) and antibody concentrations ranging from 0.8 to 500 nM. Fluorescence polarization and intensity of the samples was measured on an EnVision microplate reader (PerkinElmer Life Sciences) using excitation/emission filter settings of 480/535 nm. Increasing fluorescence polarization as a function of antibody concentration (A) provides confirmation of ligand analog binding to the antibody. […] Phosphotyrosine peptide, target ligand, (phospho-pp60 c-src (521-533); TSTEPQY*QPGENL, Bachem California, Inc. Torrance, Calif.) was then added to all samples at a concentration of 10 μM and the fluorescence intensity and polarization measurements were repeated (C, D). […] Displacement of the ligand analogs from antibody is confirmed by depolarization of fluorescence (D compared to A). […] See, FIG. 14.
Compound 12 and Compound 13 were assessed for efficacy using the methods described in Example 22. […] Samples containing 100 nM of Compound 13 and additional components identified in the figure legend were prepared in 50 mM Tris-HCl pH 7.5, 10 mM MgCl2, 0.01% Brij-35, 100 μM ATP, 2 mM DTT, 1 mM EGTA. 100 μL volumes of these samples were transferred to microcuvettes. The fluorescence emission spectrum was recorded for each sample using a Hitachi F-4500 spectrofluorometer (excitation wavelength=520 nm). See, FIG. 15

[7] = tested on: P-Tyr-100 monoclonal anti-phosphotyrosine antibody; test: Competitive immunoassay with Compound 15, anti-phosphotyrosine antibody and phosphotyrosine peptide (Example 12); type: binding, mouse; conditions: 100 nM ligand analog + 100 nM P-Tyr-100, kinase buffer
Procedure: A 5 mM solution of Compound 15 was prepared in water. In 150 μl kinase buffer (50 mM Tris, pH 7.5, 10 mM MgCl2, 1 mM EGTA, 0.01% Brij 35, 2 mM DTT, 100 μM ATP) several separate reactions were made containing: 1) 100 nM Compound 15; 2) 100 nM […]+100 nM P-Tyr-100 monoclonal anti-phosphotyrosine antibody (Cell Signaling Technology, catalog # 9411); 3) 100 nM Compound 15+100 nM P-Tyr-100+10 μM phospho-pp60 c-src peptide (521-533) (TSTEPQY*QPGENL) from Bachem, catalog # H-3258; 4) 100 nM Compound 15+100 nM P-Tyr-100+10 μM phospho-abl peptide (EAIY*AAPFAKKK), custom peptide MPIJ6 from Anaspec. The resulting fluorescence was measured using a Hitachi F-4500 cuvette fluorimeter using 100 μl cuvettes. The F-4500 was set on ‘emission scan’, with an excitation at 470 nm, slit width of 5 nm, emission scan from 485-650 nm, slit width 5 nm, and the PMT gain was at 700 V.

BODIPY FL phosphotyramide [Compound 16] was tested, and the “affinity of antibody for the ligand analog” value (p-Tyr-100 antibody) was “highest affinity”, the “fluorescence intensity at 510 nm, Sample C” value ([1]; 100 nM Compound 16 + 100 nM P-Tyr-100 + 600 nM Fab labeled Alexa Fluor 555 (DOS 3.8), percentages of Sample A) was 36 percentages and the “fluorescence intensity at 510 nm, Sample C” value ([1]; 100 nM Compound 16 + 100 nM P-Tyr-100 + 600 nM Fab labeled Alexa Fluor 594 (DOS 2.5), percentages of Sample A) was 48 percentages. For the same compound, the “fluorescence intensity at 510 nm, Sample C” value ([1]; 100 nM Compound 16 + 100 nM P-Tyr-100 + 600 nM Fab labeled Alexa Fluor 647 (DOS 2.8), percentages of Sample A) was 47 percentages, the “fluorescence intensity at 510 nm, Sample C” value ([1]; 100 nM Compound 16 + 100 nM P-Tyr-100 + 600 nM Fab, Unlabeled, percentages of Sample A) was 51 percentages and the “fluorescence intensity at 510 nm, Sample B” value ([1]; 100 nM Compound 16 + 100 nM P-Tyr-100, percentages of Sample A, excitation 450 nm) was 49 percentages and 51 percentages and 53 percentages. The “fluorescence intensity at 510 nm, Sample A” value ([1]; 100 nM Compound 16 alone, reference set to 100, excitation 450 nm) was 100 percentages and the “decrease of fluorescence intensity on binding to the P-Tyr-100 antibody” value ([1]; 100 nM ligand analog + 100 nM P-Tyr-100) was “approximately 50%”.
For NC(=O)C(Cc1ccc(OP(=O)(O)O)cc1)NC(=O)c1ccc(C(=O)O)c(-c2c3cc(F)c(=O)cc-3oc3cc(O)c(F)cc23)c1 (stereo not drawn) [Compound 34], the Kd [2] was 1.7 nM and the “increase in fluorescent signal after the ligand analog is displaced by the phosphorylated peptide” value [3] was 4 fold.
For “TSTEPQY*QPGENL [phospho-pp60 c-src peptide]”, the “displacement of the ligand analog (Compound 15)” value [4] was “significantly displaces”.
O=C(NCCc1ccc(OP(=O)(O)O)cc1)c1ccc(C(=O)O)c(-c2c3cc(F)c(=O)cc-3oc3cc(O)c(F)cc23)c1 [Compound 15, Oregon Green 488 6-phosphotyramide] was tested, and the off rate [5] was 0.14 s⁻¹, the Fmax/Fmin [6] was 5.4 and the “quenching of the reporter molecule on addition of P-Tyr-100 antibody” value [7] was “significantly quenched”. It also gave a Kd [2] of 2 nM.
